{"source": "patent US20120301468A1", "about": "“ANTI-MN ANTIBODIES AND METHODS OF USING SAME” (BAYER HEALTHCARE LLC, priority 2005, published 2012)", "key": {"Colo-205 CRC xenograft": {"system": "Colo-205 CRC xenograft", "test": "Colo-205 subcutaneous xenograft model", "source_text": "(§1) The in vivo anti-tumor effect of 3ee9/MMAE was examined in 6 different human xenograft tumor models. These models were established through subcutaneous implantation of human tumor cells into female athymic NCr (nu/nu) mice (Taconic, N.Y.). The human tumor xenograft models evaluated included the MaTu human mammary carcinoma model, the HT-29 and Colo-205 human colo-rectal carcinoma (CRC) models, PC3MM2 prostate carcinoma model, the HCT-15 multi-drug resistant (P-gp) CRC model, and the MiaPaCa2 human pancreatic model. PBS was used as a vehicle, and dosing solutions were prepared fresh daily. The dosing volume was 0.1 mL/10 g (10 mL/kg).\n(§2) The length and width of each tumor were measured using an electronic caliper 2-3 times per week, and tumor weights (mg) were calculated based on the formula of [length (mm)×width (mm)^2]/2. All data, including daily observations, obtained throughout the course of the study were documented in Anti-tumor Data Acquisition System (ADAS). […] Tumor growth inhibition (TGI) was calculated as (1-T/C)×100, where T=final tumor weights from a treated group after the last dose, and C=final tumor weights from the control group after the last dose. In addition, anti-tumor efficacy was measured as the incidence of responses (or responders or regressions) defined as tumors with ≦50% of their initial size. A minimum duration of 7 days is required for a response to be considered durable.\nThe anti-tumor activity of 3ee9/MMAE was next evaluated against human prostate (PC-3 mm2) and CRC (Colo-205) tumor xenografts. Female NCr nu/nu mice were implanted subcutaneously (s.c.) either with 5×10^6 PC3 mm2 or Colo-205 cells. Treatment was initiated when tumors were of an average size of approximately 125-150 mg. The general health of mice was monitored and recorded daily. Tumor dimensions and body weights were recorded twice a week starting with the first day of treatment.\nIn the PC3 mm2 and Colo-205 studies, 3ee9/MMAE was administered intravenously (i.v.) once every 4th day for a total of 3 injections (Q4Dx3) at doses of 1, 3, 10 and 30 mg/kg and 1.25, 2.5, 5 and 10 mg/kg, respectively.\nThe feasibility of using 3ee9/MMAE in conjunction with other cancer chemotherapeutic agents was investigated. Xeloda® is used as first line treatment of patients with metastatic colorectal carcinoma. The activity and tolerability of combined therapy using 3ee9/MMAE and Xeloda® was evaluated. 3ee9/MMAE was administered i.v. on a Q4Dx3 schedule and at dose levels of 1.25, 2.5 and 10 mg/kg. Xeloda® was administered orally once daily for 9 days at dose levels of 250 and 500 mg/kg."}, "[1]": {"system": "MaTu human mammary carcinoma xenograft", "settings": "for tumors showing signs of re-growth: ˜3 months after cessation, 10 mice per group; for animals remained tumor-free: ˜90 days after cessation", "method": "Anti-MN antibodies were conjugated to cytotoxic small molecules using protocols that are known in the art (e.g., Liu, et al., Proc. Natl. Acad. Sci. 93:8618-8623, 1996). Human mammary xenograft, MaTu cells were maintained as adherent cultures in RPMI supplemented with 10% FBS. Ncr nude mice (8-12 weeks of age) were inoculated subcutaneously in the right flank with 5×10^6 cells in 0.1 mL of 80% matrigel/20% HBSS. When tumors reached an average size of ˜180 mg (6 days), treatment was initiated. Monoclonal antibodies conjugated to cytotoxic small molecules were administered i.v. once every four days (Q4Dx3) at a dose of 10 mg/kg. Control mice were treated with PBS or an unconjugated monoclonal antibody. Daily examinations into the health status of each animal were conducted. Each experimental group consisted of 10 mice and the dosing volume was 0.1 mL/10 g body weight. The length and width of each tumor was measured by using an electronic caliper 2-3 times per week and tumor weights (mg) were calculated based on the formula of [length (mm)×width (mm)^2]/2. All data, including daily observations, obtained throughout the course of the study were documented. Tumor growth inhibition (TGI) was calculated as 1−T/C×100, where T=final tumor weights from a treated group, and C=final tumor weights from the control group.\nas §1, §2\nHuman mammary xenograft, MaTu cells were maintained as adherent cultures in RPMI supplemented with 10% FBS. NCr nude mice (8-12 weeks of age) were inoculated subcutaneously in the right flank with 5×10^6 cells in 0.1 mL of 80% matrigel/20% HBSS. When tumors reached an average size of ˜180 mg (7 days), treatment was initiated. […] Control mice were treated with PBS or an un-conjugated monoclonal antibody at a dose of 10 mg/kg.\nDaily examinations into the health status of each animal were conducted. Each experimental group consisted of 10 mice, and the dosing volume was 0.1 mL/10 g body weight. The length and width of each tumor was measured by using an electronic caliper 2-3 times per week, and tumor weights (mg) were calculated based on the formula of [length (mm)×width (mm)^2]/2. All data, including daily observations, obtained throughout the course of the study were documented. Tumor growth inhibition (TGI) was calculated as 1−T/C×100, where T=final tumor weights from a treated group, and C=final tumor weights from the control group."}, "[2]": {"settings": "Colo-205, 1.25 mg/kg/inj Q4D × 3 IV"}, "[3]": {"settings": "Colo-205, 2.5 mg/kg/inj Q4D × 3 IV"}, "[4]": {"settings": "Colo-205, 10 mg/kg/inj Q4D × 3 IV"}}, "note": "Read-outs that look alike come from different tables or passages of the source.", "data": [{"substance": "3ee9/MMAE: human anti-MN IgG1 antibody 3ee9 conjugated to Monomethylauristatin E (MMAE)", "values": [{"measurement": "% Inhibition (T/C) (d 17)", "setting": "Colo-205 CRC xenograft; [2]", "value": 30.6, "unit": "%"}, {"measurement": "% Regressions", "setting": "Colo-205 CRC xenograft; [2]", "value": 0, "unit": "%"}, {"measurement": "% Weight Loss (d 17)", "setting": "Colo-205 CRC xenograft; [2]", "value": 0.5, "unit": "%"}, {"measurement": "TGI", "setting": "Colo-205 CRC xenograft; Colo-205, 2.5 mg/kg i.v. Q4Dx3, end of dosing", "value": "> 70", "unit": "%"}, {"measurement": "% Inhibition (T/C) (d 17)", "setting": "Colo-205 CRC xenograft; [3]", "value": 73, "unit": "%"}, {"measurement": "% Regressions", "setting": "Colo-205 CRC xenograft; [3]", "value": 0, "unit": "%"}, {"measurement": "% Weight Loss (d 17)", "setting": "Colo-205 CRC xenograft; [3]", "value": 0.1, "unit": "%"}, {"measurement": "responses (regressions)", "setting": "Colo-205 CRC xenograft; Colo-205, 5 mg/kg Q4Dx3", "value": 40, "unit": "%"}, {"measurement": "responses (regressions)", "setting": "Colo-205 CRC xenograft; Colo-205, 10 mg/kg Q4Dx3", "value": 80, "unit": "%"}, {"measurement": "% Inhibition (T/C) (d 17)", "setting": "Colo-205 CRC xenograft; [4]", "value": 96.2, "unit": "%"}, {"measurement": "% Regressions", "setting": "Colo-205 CRC xenograft; [4]", "value": 80, "unit": "%"}, {"measurement": "% Weight Loss (d 17)", "setting": "Colo-205 CRC xenograft; [4]", "value": 0.9, "unit": "%"}, {"measurement": "TGI", "setting": "Colo-205 CRC xenograft; Colo-205, 5 and 10 mg/kg i.v. Q4Dx3, end of dosing", "value": "> 90", "unit": "%"}, {"measurement": "TGI", "setting": "Colo-205 CRC xenograft; Colo-205, alone 1.25 mg/kg i.v. Q4Dx3", "value": 31, "unit": "%"}, {"measurement": "TGI", "setting": "Colo-205 CRC xenograft; Colo-205, alone 2.5 mg/kg i.v. Q4Dx3", "value": 73, "unit": "%"}, {"measurement": "response rate", "setting": "Colo-205 CRC xenograft; Colo-205, alone 10 mg/kg", "value": 80, "unit": "%"}, {"measurement": "TGI", "setting": "Colo-205 CRC xenograft; Colo-205, alone 10 mg/kg i.v. Q4Dx3", "value": 96, "unit": "%"}, {"measurement": "anti-tumor effect", "setting": "Colo-205 CRC xenograft; Colo-205, lowest dose, 1 mg/kg", "value": "relatively ineffective"}, {"measurement": "anti-tumor effects", "setting": "Colo-205 CRC xenograft; Colo-205 human colo-rectal cancer xenograft model", "value": "anti-tumor effects were seen"}, {"measurement": "body weight loss", "setting": "[1]; 60 mg/kg i.v. Q4Dx3", "value": "~20", "unit": "%"}, {"measurement": "lethality", "setting": "[1]; 60 mg/kg i.v. Q4Dx3", "value": 10, "unit": "%"}, {"measurement": "maximum tolerated dose (MTD)", "setting": "[1]; MaTu tumor-bearing mice, i.v. Q4Dx3", "value": 60, "unit": "mg/kg"}, {"measurement": "therapeutic index (MTD divided by MED)", "setting": "[1]; MaTu xenograft", "value": "~96"}, {"measurement": "tumor regression", "setting": "[1]; MaTu, 0.625 mg/kg Q4Dx3", "value": "No tumor regression"}, {"measurement": "inhibition of tumor growth", "setting": "[1]; MaTu, 0.625 mg/kg Q4Dx3, end of dosing", "value": 62, "unit": "%"}, {"measurement": "time tumors remained stable after cessation of treatment", "setting": "[1]; MaTu, 1 mg/kg Q4Dx3", "value": "~2", "unit": "weeks"}, {"measurement": "tumors responsive to treatment", "setting": "[1]; MaTu, 1 mg/kg Q4Dx3", "value": 30, "unit": "%"}, {"measurement": "TGI", "setting": "[1]; MaTu, 1 mg/kg i.v. Q4Dx3, end of dosing", "value": 67, "unit": "%"}, {"measurement": "animals exhibiting tumor regressions", "setting": "[1]; MaTu, 1.25 mg/kg Q4Dx3", "value": 80, "unit": "%"}, {"measurement": "inhibition of tumor growth", "setting": "[1]; MaTu, 1.25 mg/kg Q4Dx3, end of dosing", "value": 81, "unit": "%"}, {"measurement": "animals responded to treatment", "setting": "[1]; MaTu, 2.5 mg/kg and higher Q4Dx3", "value": 100, "unit": "%"}, {"measurement": "TGI", "setting": "[1]; MaTu, 3 mg/kg i.v. Q4Dx3, end of dosing", "value": 72, "unit": "%"}, {"measurement": "tumors showing signs of re-growth", "setting": "[1]; MaTu, 3 mg/kg", "value": 3, "unit": "tumors"}, {"measurement": "animals remained tumor-free", "setting": "[1]; MaTu, 3 mg/kg", "value": 70, "unit": "%"}, {"measurement": "TGI", "setting": "[1]; MaTu, 10 mg/kg i.v. Q4Dx3, end of dosing", "value": 78, "unit": "%"}, {"measurement": "tumors showing signs of re-growth", "setting": "[1]; MaTu, 10 mg/kg", "value": 1, "unit": "tumors"}, {"measurement": "animals remained tumor-free", "setting": "[1]; MaTu, 10 mg/kg", "value": 90, "unit": "%"}, {"measurement": "tolerability", "setting": "[1]; MaTu, 1, 3 and 10 mg/kg i.v. Q4Dx3", "value": "well-tolerated at all doses examined"}, {"measurement": "inhibition of tumor growth", "setting": "[1]; MaTu, 2.5, 5, 10, 30 and 60 mg/kg Q4Dx3", "value": "~90", "unit": "%"}, {"measurement": "animals responded", "setting": "[1]; MaTu, 3 and 10 mg/kg Q4Dx3", "value": 100, "unit": "%"}, {"measurement": "minimum efficacious dose (MED)", "setting": "[1]; MaTu, i.v. Q4Dx3", "value": 0.625, "unit": "mg/kg"}, {"measurement": "In vivo activity: MED", "setting": "[1]; Table 4 profile", "value": 1, "unit": "mg/kg"}, {"measurement": "In vivo activity: MTD", "setting": "[1]; Table 4 profile", "value": 60, "unit": "mg/kg"}, {"measurement": "tolerability", "setting": "[1]; all other treatment groups (0.625 to 30 mg/kg) Q4Dx3", "value": "well tolerated"}]}]}
